Experimental findings from PMC7255010, “Small-molecule activating SIRT6 elicits therapeutic effects and synergistically promotes anti-tumor activity of vitamin D3 in colorectal cancer” (Theranostics, 2020) are described below.

As a reminder, the IC50 is the concentration that inhibits the measured activity by half. Higher therefore signals lower potency. Broadly, the AUC(0-inf) is total exposure, with the tail of the curve extrapolated. A high value points to more exposure. The term half-life denotes the time needed for the level to fall by half in the phase considered. A low value points to fast loss. The Cmax is the highest concentration seen after dosing. The term MRT denotes a mean duration of stay, worked out from the concentration-time curve. By bioavailability is commonly meant the share of a dose that reaches the circulation, judged against a reference dose that is usually intravenous.

Data set [1] deals with FHC. As to the kind of experiment: Cell proliferation, CCK-8, non-cancerous colon cell line. It is filed as cell-based. The conditions noted are these: Homo sapiens, CCK-8, 48 h, Figure S6, mean ± s.e.m. of three experiments.
Data set [2] in a line: Body weights and behaviour of xenograft models. The class given is in vivo. As to conditions: CDX and PDX mice at the efficacy dosage. The method, then:
All animal studies were performed following federal and institutional guidelines approved by the Institutional Animal Care and Use Committee at Shanghai Jiao-Tong University School of Medicine. To establish the CDXs, HCT116 cells (1 × 10^6) suspended in 100 μL of 1× PBS were injected subcutaneously into the flanks of six-week-old male BALB/c nude mice. To establish the PDXs, primary tumors resected from two independent CRC patients (patient #1 and #2) were collected in the culture medium. The necrotic and supporting tissues were carefully removed using sterilized surgical blades. The gross tumor was cut into fragments (2-3 mm in diameter) and inoculated subcutaneously into the flanks of nude mice. The mice were monitored daily, and caliper measurements began when tumors became visible. The tumor volume was monitored every other day via calipers. The tumor volume was calculated using the following formula: (L × W ^2) / 2, where L and W refer to the tumor diameter along the longitudinal and transverse axes, respectively. When the mean tumor volume was approximately 100 to 250 mm^3, the mice were randomly grouped (n = 6 per group for CDXs, n = 8 per group for PDXs), and treatment was initiated. […] After treatment or if meeting the humane endpoint criteria, the mice were sacrificed by CO2 asphyxiation. The tumors were dissected, imaged, and weighed. […]

The subject of data set [3] is HT29. As to the kind of experiment: Cell cycle analysis (PI staining, flow cytometry). The class given is cell-based, human. The conditions noted are these: for cell cycle phase distribution, G2/M: 48 h (0 µM: 22.6 ± 6.7); for cell cycle phase distribution, S: 48 h (0 µM: 36.9 ± 4.6); for cell cycle phase distribution, G0/G1: 48 h (0 µM: 40.5 ± 2.6). Here is the method: Then, cells were collected and fixed with 75% ethanol at 4 °C overnight. The cells were incubated with RNase I (50 μg/mL) in 1× PBS at 37 °C for 30 min and stained with propidium iodide (50 μg/mL) for 15 min. The cells were analyzed by flow cytometry and FACS DIVA software, v6.2 (BD Biosciences). The cell cycle distribution was analyzed using FlowJo 7.6.1 software. The data are presented as the mean ± s.d. of three independent experiments.

Data set [4] can be described thus: Pharmacokinetic studies in mice. As to conditions: male, mouse, plasma, C57BL/6J mice. It is filed as in vivo. The method, then:
Pharmacokinetic studies were performed by Shanghai Medicilon Inc, China, following standard protocols. Briefly, six-week-old male C57BL/6J mice were grouped randomly (n = 5 per group). […] Two administration formulations were prepared in the vehicle with 5% DMSO, 10% Solutol and 85% saline, with the pH adjusted to 7.0-8.0. After treatment, the mice were sacrificed, and their plasma samples were collected at 5 min, 15 min, 30 min, 1 h, 2 h, 4 h, 8 h, and 24 h. The drug concentration in plasma was analyzed by LC-MS/MS. Pharmacokinetic parameters were calculated using Analyst Software 1.6.3 from mean plasma concentration-time profiles. The area under the curve (AUC) was measured from time versus concentration data by the linear trapezoidal rule. […] The calculation was normalized to relative doses.

Data set [5] deals with SIRT6 (Homo sapiens, UniProt Q8N6T7). Nature of the data set: SIRT6 deacetylation on nucleosome substrates (western blot). It is filed as biochemical. More on the design: WT (wild-type) full-length human SIRT6 was inserted into the pET28a-LIC vector; made in house; host or cells: Escherichia coli BL21 (DE3). As to conditions: natural nucleosomes, dose-dependent. The method, then: In vitro deacetylation reactions on nucleosome substrates were performed as previously reported, [32]. Briefly, 5 μg of mononucleosomes purified from HeLa cells with a nucleosome preparation kit (Active Motif) and 0.2 μg of purified WT SIRT6 were incubated in 40 μL of HDAC buffer (50 mM Tris-HCl [pH 8.0], 2 mM NAD^+, and 150 mM NaCl) for 80 min at 30 °C. […] The reaction mixture was analyzed by western blotting.
SIRT6, sequence (Q8N6T7 whole entry): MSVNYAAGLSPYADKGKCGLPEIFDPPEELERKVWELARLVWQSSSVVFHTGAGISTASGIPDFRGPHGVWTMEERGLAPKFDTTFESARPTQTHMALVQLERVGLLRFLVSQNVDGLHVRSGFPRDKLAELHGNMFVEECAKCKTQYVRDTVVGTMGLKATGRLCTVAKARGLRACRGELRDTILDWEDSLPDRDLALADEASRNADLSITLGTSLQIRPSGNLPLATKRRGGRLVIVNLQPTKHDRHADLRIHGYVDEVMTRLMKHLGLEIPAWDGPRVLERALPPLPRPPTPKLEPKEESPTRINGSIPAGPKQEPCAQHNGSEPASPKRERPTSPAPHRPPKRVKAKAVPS

Where [6] appears, read: 30 mg/kg, IP 30 mg/mL, mean of five mice.

SMILES strings stand for the structures.

In turn, `Cc1cc(F)c(Br)cc1NS(=O)(=O)c1ccc(NS(=O)(=O)c2cc(Cl)cc(Cl)c2)cc1CN1CCOC[C@H]1C` [MDL-811] yielded an IC50 in data set [1] of 24.4 ± 0.5 µM. The “weight loss and behavioral signs” value in data set [2] is listed as “did not observe any significant weight loss or other abnormal behavioral signs”. Moreover, in data set [3] (HT29, 5 µM), the “cell cycle phase distribution, G2/M” value is recorded as 20.2 ± 4.2; the “cell cycle phase distribution, S” value is recorded as 25.3 ± 4.5; the “cell cycle phase distribution, G0/G1” value came to 54.5 ± 4.1. In data set [3] (HT29, 10 µM), the “cell cycle phase distribution, G2/M” value worked out at 20.5 ± 3.7; the “cell cycle phase distribution, S” value amounted to 19.6 ± 2.3; the “cell cycle phase distribution, G0/G1” value worked out at 59.9 ± 2.7. In data set [4] (setting [6]), this molecule gave a total exposure AUC(0-inf) of 19700 ng·h/mL and a half-life of 1.38 h. Also, the AUC0-t in data set [4] (30 mg/kg, IP 30 mg/mL, mean of five mice, read-out: AUC0-t) was 19600 ng·h/mL. Also, in data set [4] (30 mg/kg, IP 30 mg/mL, mean of five mice, read-out: Cmax), the Cmax was 5330 ng/mL. In addition, the MRT in data set [4] (30 mg/kg, IP 30 mg/mL, mean of five mice, read-out: MRT) turned out to be 2.63 h. Also, in data set [4] (30 mg/kg, IP 30 mg/mL, mean of five mice, read-out: tmax), the tmax stood at 0.5 h. The bioavailability in data set [4] (intraperitoneal, IP 30 mg/mL vs IV, ratio of AUC normalized to dose, read-out: F (bioavailability)) was found to be 93%. In data set [5], the “deacetylation of H3K9Ac, H3K18Ac, and H3K56Ac” value is “significantly enhanced the deacetylation of SIRT6 (H3K9Ac, H3K18Ac, and H3K56Ac)”.
